Consider one substance from US20220128542A1, “TREATMENT EFFICIENCY EVALUATION” (TX MEDIC AB, priority 2019, published 2022).

This experiment has as its system Mouse motor neurons. The experiment is described as follows: Gene expression array and pathway/upstream regulator analysis in motor neurons (Example 2). The note with it: 0.01 mg/ml. In kind it is cell-based. On the procedure:
For each cell line, n=8×25 cm^2 culture flasks were set up. Two flasks were harvested for each cell type on the day of treatment (24 hours after seeding). This represents the Day0 time point. From the remaining flasks, three flasks were treated with Control Medium and three were treated with Culture Medium (CM) containing LMW-DS to give a final concentration of 0.01 mg/ml. Cells from the treated flasks were collected after 48 hours. Therefore the collected data represent (a) untreated cells (Day0 Controls and Day2 Controls) and (b) cells treated with LMW-DS for 48 hours (Day2 LMW-DS treated).
25 cm^2 flasks were coated by adding 2 ml per flask of a solution of 50 μg/ml poly-d-lysine in Hank's balanced salt solution (HBSS) and incubating overnight at 37° C. in the dark. Flasks were washed with cell culture water and air-dried for 30 min in the dark. Flasks were coated by adding 1 ml per flask of a solution of 25 μg/ml laminin in phosphate-buffered saline (PBS) and incubating for 2 hour at 37° C. in the dark. The laminin flasks were washed with PBS three times before plating cells.
The culture medium was prepared according to Table 5.
Medium (see Table 5) was pre-warmed to 37° C. Cells were thawed in a 37° C. water bath for no longer than 2 min. 9 ml of media was gently added drop-wise. The cell suspension was mixed by inverting the tube carefully twice. The cells were counted with a Cellometer. The cells were centrifuged for 5 minutes at 200×g. Supernatant was removed (to the last 0.5 ml) and cells were gently re-suspended by trituration. The cells from the 8 vials were mixed and distributed equally into the previously coated 25 cm^2 flasks (n=8). Cells were incubated at 37° C. with 5% CO2 for 24 hours before treatment.
A fresh 100× LMW-DS stock (1.0 mg/ml) was prepared in sterile DMEM-F12. The concentrated drug stock was sterile filtered and added to the respective culture media (19.6 ml CM and 0.4 ml LMW-DS stock solution). The Control was made using 19.6 ml CM and 0.4 ml of DMEM-F12. LMW-DS and CM were added to the respective flasks (5 ml each) to reach the 0.01 mg/ml concentration of LMW-DS in each dish with a total of 10 ml CM each.
CM was aspirated into a clean and labelled 15 ml Falcon tube. The flasks (without culture medium) were placed into the −80° C. freezer for 30 minutes. The CM in the Falcon tubes was spun at 3000×g for 5 minutes. Supernatant was removed and the small pellet was re-suspended in 2.5 ml Trizol:Water (4:1) solution at room temperature (RT, ˜22° C.).
The frozen flasks were removed one-by one from the freezer and the Trizol-Water from the appropriate tubes was moved to the flask. Flasks were left at RT for 5 minutes before the content was aspirated back into the 15 ml Falcon tube (after washing the bottom of the flask with the solution thoroughly). The flasks were inspected under the microscope to ensure full removal of cells. The collected lysates in the 15 ml Falcon tubes were placed into the −80° C. freezer.
Falcon tubes containing the homogenates were removed from the freezer and stored for 5 minutes at RT to permit the complete dissociation of nucleoprotein complexes.
Two aliquots of 1 ml lysate were removed from each sample and 200 μl of chloroform was added to each (0.2 ml of chloroform per 1 ml of TRIzol Reagent used during the cell lysis step) and the tube was shaken vigorously. Samples were stored at RT for 2-3 minutes and subsequently centrifuged at 12,000×g for 15 minutes at 4° C.
The mixture separated into three layers: a lower red phenol-chloroform phase, an interphase and a colorless upper aqueous phase. The RNA remained in the top aqueous phase, DNA in the white middle (interphase) phase and protein in the pink bottom (organic) phase. The top ¾ of the aqueous phase was transferred to a new clean Eppendorf tube.
The RNA was precipitated from the aqueous phase by adding an equal amount of 100% ethanol. The precipitated RNA was fixed onto a Spin Cartridge, washed twice and dried. […]

For sodium salt of dextran sulfate [LMW-DS], where the note is “48 hours”, the “number of genes: no effect / abolished nutrient effect” value worked out at 177, the “number of genes: no effect / new effect induced by LMW-DS” value is 108, the “number of genes: no effect / total” value stood at 285 and the “number of genes: significant downregulation / abolished nutrient effect” value is 47. Besides, where the note is “48 hours”, the “number of genes: significant downregulation / enhanced response to nutrients” value was 36, the “number of genes: significant downregulation / new effect induced by LMW-DS” value is 375, the “number of genes: significant downregulation / not different from control” value was 104 and the “number of genes: significant downregulation / total” value stood at 562. Moreover, where the note is “48 hours”, the “number of genes: significant upregulation / abolished nutrient effect” value amounted to 40, the “number of genes: significant upregulation / enhanced response to nutrients” value was 103, the “number of genes: significant upregulation / new effect induced by LMW-DS” value is 71 and the “number of genes: significant upregulation / not different from control” value came to 75. Where the note is “48 hours”, the “number of genes: significant upregulation / total” value was determined as 289, the “number of genes: total / abolished nutrient effect” value turned out to be 264, the “number of genes: total / enhanced response to nutrients” value worked out at 139 and the “number of genes: total / new effect induced by LMW-DS” value is recorded as 554. For the same substance, where the note is “48 hours”, the “number of genes: total / not different from control” value was determined as 179 and the “number of genes: total / total” value is 1136. The substance also showed a differentially expressed genes (D0 control vs D2 LMW-DS treated) of 315 genes. The differentially expressed genes (second comparison) is on record as 425 genes.
